The values below are quoted from earlier work in patent publication US20090022826A1, “Multi-step method of pain and/or inflammation treatment” (priority 2007, published 2009).

Consider `CCOCCOCCO` [Ethoxydiglycol, diethylene glycol monoethyl ether], for which the solubility in alcohol entry (alcohol) is on record as “soluble”. Also, under “mineral oil”, the “solubility in mineral oil” value is listed as “insoluble”. Further, the “solubility in vegetable oil” value (vegetable oil) is on record as “partially soluble”. Also, the solubility in water entry (water) is reported as “soluble”.
